Measurements from patent US20240002437A1, “COMPOSITIONS AND METHODS OF TREATING INFLAMMATORY LUNG DISEASES” (priority 2020, published 2024).

Legend:
[1] = test system: NOS-derived superoxide; assay: NOS-derived superoxide by EPR (eNOS uncoupling) in PAEC; assay type: cell-based, ovine; settings: PMA
Method: (§1) Primary cultures of ovine pulmonary arterial endothelial cells (PAEC) were isolated as described previously (L. K. Kelly, Am J Physiol Lung Cell Mol Physiol, 286(5), L984-91 (2004)). Briefly, cells were maintained in Dulbecco's modified Eagle medium (DMEM) supplemented with 10% fetal calf serum (Hyclone, Logan, UT), antibiotics/antimycotic (500 IU Penicillin, 500 μg/ml Streptomycin, 1.25 μg/ml Amphotericin B; MediaTech, Herndon, VA) at 37° C. in a humidified atmosphere with 5% CO2 and 95% air. Cells were used for experiments between passages 9-14, seeded at ˜50% confluence, and utilized when fully confluent.
Superoxide levels were estimated by electron paramagnetic resonance (EPR) assay using the spin-trap compound 1-hydroxy-3-methoxycarbonyl-2,2,5,5-tetramethylpyrrolidine HCl (CMH, Axxora) as described previously. Superoxide in PAEC was trapped by incubating PAEC with 20 μl of CMH stock solution (20 mg/ml) for 1 h, followed by trypsinization and centrifugation at 500 g. The cell pellet was suspended in 35 μl DPBS and loaded into a capillary tube which was then analyzed with a MiniScope MS200 EPR machine (Magnettech, Berlin, Germany). Pre-incubating cells or tissue with 100 μM ethylisothiourea (ETU, Sigma-Aldrich) for 30 min followed by incubation with CMH measured NOS-derived superoxide. EPR spectra were analyzed using ANALYSIS v.2.02 software (Magnettech). Differences between levels of samples incubated in the presence and absence of ETU were used to determine NOS-dependent superoxide generation.

[2] = test system: PAEC; assay: Mitochondrial bioenergetics (XF24 Analyzer, OCR) in PAEC; assay type: cell-based, ovine; settings: PMA
Method: as §1
The XF24 Analyzer (Seahorse Biosciences) and XF CELL MITO STRESS™ Test Kit (#101706-100; Seahorse Biosciences) were used for the mitochondrial bioenergetic analyses. The optimum number of cells/well was determined to be 75,000/0.32 cm^2. At the end of each study, the XF24 culture microplates were incubated in a CO2-free XF prep station at 37° C. for 45 min to allow temperature and pH calibration. Subsequently, each well was sequentially injected Oligomycin (1 μM final concentration), carbonyl cyanide 4-(trifluoromethoxy) phenylhydrazone (FCCP, 1 μM final concentration), and Rotenone+antimycin A (1 μM final concentration of each) and measured the oxygen consumption rate (OCR). These agents were used to determine basal mitochondrial respiration, reserve respiratory capacity and maximal respiratory capacity measurements in pmols/min of oxygen consumed.

[3] = test system: eNOS phosphorylation at T495; assay: Western blot of pT495-eNOS in PAEC; assay type: cell-based, ovine; settings: PMA 100 nM, 10, 30 and 60 minutes
Method: as §1
Protein extracts were prepared using lysis buffer (50 mM Tris-HCl, pH 7.6, 0.5% Triton X-100, 20% glycerol) containing HALT™ protease inhibitor cocktail (Pierce Laboratories, Rockford, IL). The extracts were then subjected to centrifugation (15,000 g for 15 min at 4° C.). Supernatant fractions were assayed for protein concentration using the Bradford reagent (Bio-Rad, Richmond, CA) then used for Western blot analyses. Protein extracts (25-50 μg) were separated on Long-Life 4-20% Tris-SDS-Hepes gels and electrophoretically transferred to IMMUNO-BLOT™ PVDF membrane (Bio-Rad Laboratories, Hercules, CA) Immunoblotting was then carried out using the appropriate antibodies in Tris-base buffered saline with 0.1% Tween 20 and 5% nonfat milk. After washing, the membranes were probed with horseradish peroxidase-conjugated goat antiserum to rabbit or mouse. Reactive bands were visualized using chemiluminescence (Super Signal West Femto; Pierce, Rockford, IL) on a LI-COR Odyssey image station (Lincoln, NE). Bands were quantified using LI-COR Image Station software. Loading was normalized by reprobing the membranes with an antibody specific to β-actin.

[4] = test system: mitochondrial redistribution of eNOS; assay: Immunofluorescent microscopy of eNOS mitochondrial redistribution in PAEC; assay type: cell-based, ovine; settings: PMA
Method: as §1
PAEC were grown on cover glass for three days after reaching 100% confluence, and fixed with 4% paraformaldehyde (Thermo Fisher Scientific) for 30 min, permeabilized with 100% cold methanol at −20° C. for 5 min Cell then blocked with 1% BSA for 1 hour, and later incubated with first antibody overnight at 4° C. then secondary antibody at room temperature for 1 hour. Finally, cells were mounted on microscope slides using ProLong Glass Antifade Mountant, (Invitrogen, Carlsbad, CA, Cat #P36980). […] The images were analyzed with ImagePro Plus 7.0 (W. Casavan, Microscopy Today, 11(6), 48-50 (2003)) or ImageJ software to evaluate the colocalization of fluorescent.

[5] = target: T1, TRPV4 (Mus musculus, UniProt Q9EPK8); settings: mice treated with the TRPV4 antagonist; literature (Yin 2016); only protective if given preventatively; cited from earlier work
T1 construct: host or cells: mice (lung), cited studies
T1 sequence (Q9EPK8 whole entry): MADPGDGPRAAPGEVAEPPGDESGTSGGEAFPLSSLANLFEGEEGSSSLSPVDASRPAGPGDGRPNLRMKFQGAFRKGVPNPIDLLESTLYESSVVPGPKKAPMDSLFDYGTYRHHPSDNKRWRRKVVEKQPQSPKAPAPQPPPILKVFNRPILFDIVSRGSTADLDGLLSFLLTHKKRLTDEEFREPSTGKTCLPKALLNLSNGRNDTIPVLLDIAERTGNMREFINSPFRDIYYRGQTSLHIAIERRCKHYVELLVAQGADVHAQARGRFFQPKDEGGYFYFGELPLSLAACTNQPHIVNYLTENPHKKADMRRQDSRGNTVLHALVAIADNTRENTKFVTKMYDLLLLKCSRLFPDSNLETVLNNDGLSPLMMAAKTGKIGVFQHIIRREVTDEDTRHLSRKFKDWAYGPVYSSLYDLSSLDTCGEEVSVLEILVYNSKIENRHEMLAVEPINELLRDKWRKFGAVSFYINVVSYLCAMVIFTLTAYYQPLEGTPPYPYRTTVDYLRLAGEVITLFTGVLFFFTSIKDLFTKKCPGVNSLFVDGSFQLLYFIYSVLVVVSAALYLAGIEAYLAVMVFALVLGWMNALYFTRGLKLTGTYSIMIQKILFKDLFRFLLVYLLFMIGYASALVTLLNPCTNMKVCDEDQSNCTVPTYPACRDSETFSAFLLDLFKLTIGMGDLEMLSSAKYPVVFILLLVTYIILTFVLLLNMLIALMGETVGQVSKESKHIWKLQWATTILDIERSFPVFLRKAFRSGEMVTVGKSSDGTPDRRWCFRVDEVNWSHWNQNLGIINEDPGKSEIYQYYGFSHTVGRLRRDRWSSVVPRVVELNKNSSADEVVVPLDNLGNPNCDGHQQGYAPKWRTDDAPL

SMILES | eNOS uncoupling (NOS derived superoxide) [1] | mitochondrial bioenergetics (OCR, reserve and maximal respiratory capacities) [2] | pT495-eNOS levels [3] | mitochondrial redistribution of eNOS [4] | protection against acid-induced ALI [5]
CCCCCCCCCCCCCC(=O)O[C@@H]1[C@@H](C)[C@@]2(O)[C@@H](C=C(CO)C[C@]3(O)C(=O)C(C)=C[C@@H]23)[C@@H]2C(C)(C)[C@]12OC(C)=O [PMA, Phorbol 12-myristate 13-acetate] | eNOS uncoupling | disruption of mitochondrial bioenergetics | increases in pT95-eNOS levels | induced the mitochondrial redistribution of eNOS | –
O=C(NC1(c2ccccc2)CC1)c1c(CN2CCC(N3CCCCC3)CC2)c(-c2cccc(C(F)(F)F)c2)nc2cc(Br)ccc12 [GSK2193874] | – | – | – | – | protected against acid-induced ALI
